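Tested at 5 concentrations; 48 h exposure; 96-well plates; endpoints linearly interpolated, else capped at highest concentration. At the TGI there is no net growth.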
Experiments:
Experiment in all cases: NCI anticancer screen, dose series, 48 h
[1] = test system: 786-0 renal
[2] = test system: A498 renal
[3] = test system: A549 NSCLC
[4] = test system: ACHN renal
[5] = test system: BT-549 breast
[6] = test system: CAKI-1 renal
[7] = test system: COLO 205 colon
[8] = test system: DU-145 prostate
[9] = test system: EKVX NSCLC
[10] = test system: HCC-2998 colon
[11] = test system: HCT-116 colon
[12] = test system: HCT-15 colon
[13] = test system: HL-60(TB) leukemia
[14] = test system: HOP-62 NSCLC
[15] = test system: HOP-92 NSCLC
[16] = test system: HS 578T breast
[17] = test system: HT29 colon
[18] = test system: IGROV1 ovarian
[19] = test system: K-562 leukemia
[20] = test system: KM12 colon
[21] = test system: LOX IMVI melanoma
[22] = test system: M14 melanoma
[23] = test system: MALME-3M melanoma
[24] = test system: MCF7 breast
[25] = test system: MDA-MB-231 breast
[26] = test system: MDA-MB-435
[27] = test system: MDA-N
[28] = test system: MOLT-4 leukemia
[29] = test system: NCI-H226 lung
[30] = test system: NCI-H23 lung
[31] = test system: NCI-H460 lung
[32] = test system: NCI-H522 lung
[33] = test system: NCI/ADR-RES ovarian
[34] = test system: OVCAR-3 ovarian
[35] = test system: OVCAR-4 ovarian
[36] = test system: OVCAR-5 ovarian
[37] = test system: OVCAR-8 ovarian
[38] = test system: PC-3 prostate
[39] = test system: RXF 393 renal
[40] = test system: SF-268 CNS
[41] = test system: SF-295 CNS
[42] = test system: SF-539 CNS
[43] = test system: SK-MEL-2 melanoma
[44] = test system: SK-MEL-28 melanoma
[45] = test system: SK-MEL-5 melanoma
[46] = test system: SK-OV-3 ovarian
[47] = test system: SN12C renal
[48] = test system: SNB-19 CNS
[49] = test system: SNB-75 CNS
[50] = test system: SR leukemia
[51] = test system: SW-620 colon
[52] = test system: T-47D breast
[53] = test system: TK-10 renal
[54] = test system: U251 CNS
[55] = test system: UACC-257 melanoma
[56] = test system: UACC-62 melanoma
[57] = test system: UO-31 renal
[58] = test system: RPMI-8226 leukemia
[59] = test system: CCRF-CEM leukemia

CCCCCCCC/C=C\CCCCCCC/C=C1/C[C@](/C=C/C(=O)OC)(CO)OC1=O
TGI [1]: 10.3 µM
TGI [2]: 21.2 µM
TGI [3]: 17.3 µM
TGI [4]: 16.7 µM
TGI [5]: 17.8 µM
TGI [6]: 12.5 µM
TGI [7]: 5.04 µM
TGI [8]: 23.4 µM
TGI [9]: 23 µM
TGI [10]: 10.1 µM
TGI [11]: 15.5 µM
TGI [12]: 20.5 µM
TGI [13]: 10.3 µM
TGI [14]: 19 µM
TGI [15]: 20.3 µM
TGI [16]: 9.29 µM
TGI [17]: 20.9 µM
TGI [18]: 23.7 µM
TGI [19]: > 32.5 µM
TGI [20]: 23.9 µM
TGI [21]: 12.8 µM
TGI [22]: 11.6 µM
TGI [23]: 8.74 µM
TGI [24]: 20.8 µM
TGI [25]: 17.7 µM
TGI [26]: 7.41 µM
TGI [27]: 3.19 µM
TGI [28]: > 21.5 µM
TGI [29]: 15.8 µM
TGI [30]: 24.9 µM
TGI [31]: 19.9 µM
TGI [32]: 17.6 µM
TGI [33]: 24 µM
TGI [34]: 24 µM
TGI [35]: 16.9 µM
TGI [36]: 20.3 µM
TGI [37]: 19.2 µM
TGI [38]: 14.5 µM
TGI [39]: 28.5 µM
TGI [40]: 19.7 µM
TGI [41]: 17.1 µM
TGI [42]: 2.84 µM
TGI [43]: 27.6 µM
TGI [44]: 10.2 µM
TGI [45]: 18 µM
TGI [46]: 24.3 µM
TGI [47]: 14.8 µM
TGI [48]: 20.3 µM
TGI [49]: 20.4 µM
TGI [50]: > 31.7 µM
TGI [51]: 11.4 µM
TGI [52]: 19.8 µM
TGI [53]: 15.3 µM
TGI [54]: 21.2 µM
TGI [55]: 29.6 µM
TGI [56]: 22.4 µM
TGI [57]: 15 µM

Nc1ccn(C2OC(COP(=O)(O)OCC3OC(n4cc(F)c(=O)[nH]c4=O)CC3O)C(O)C2O)c(=O)n1 (stereo unspecified)
TGI [1]: > 100 µM
TGI [2]: 99.3 µM
TGI [3]: > 100 µM
TGI [4]: > 34.2 µM
TGI [5]: > 100 µM
TGI [6]: > 50.1 µM
TGI [7]: > 100 µM
TGI [8]: > 100 µM
TGI [9]: > 100 µM
TGI [10]: > 100 µM
TGI [11]: > 100 µM
TGI [12]: > 100 µM
TGI [15]: > 100 µM
TGI [16]: > 100 µM
TGI [17]: > 100 µM
TGI [18]: > 100 µM
TGI [19]: > 100 µM
TGI [20]: > 100 µM
TGI [21]: > 100 µM
TGI [22]: 12.9 µM
TGI [23]: > 100 µM
TGI [24]: > 100 µM
TGI [25]: > 100 µM
TGI [26]: > 100 µM
TGI [27]: > 100 µM
TGI [28]: 7.95 µM
TGI [29]: > 100 µM
TGI [30]: > 42.1 µM
TGI [32]: > 100 µM
TGI [33]: > 100 µM
TGI [34]: > 100 µM
TGI [35]: > 100 µM
TGI [36]: > 100 µM
TGI [37]: > 100 µM
TGI [38]: > 100 µM
TGI [58]: > 100 µM
TGI [39]: > 100 µM
TGI [40]: > 100 µM
TGI [41]: > 100 µM
TGI [42]: > 100 µM
TGI [43]: > 100 µM
TGI [44]: > 100 µM
TGI [45]: > 100 µM
TGI [46]: > 100 µM
TGI [47]: > 100 µM
TGI [48]: > 100 µM
TGI [49]: > 100 µM
TGI [50]: > 88.6 µM
TGI [51]: > 100 µM
TGI [52]: > 100 µM
TGI [53]: > 100 µM
TGI [54]: > 100 µM
TGI [55]: > 100 µM
TGI [56]: > 100 µM
TGI [57]: > 100 µM

O=C1CC2(CCC(O)(c3cccc4ccccc34)C(C(=O)c3cccc4ccccc34)C2)C(=O)c2ccccc2N1 (stereo unspecified)
TGI [2]: > 100 µM
TGI [3]: > 100 µM
TGI [5]: > 100 µM
TGI [6]: > 100 µM
TGI [7]: > 100 µM
TGI [8]: > 100 µM
TGI [9]: > 100 µM
TGI [10]: > 100 µM
TGI [11]: > 100 µM
TGI [12]: > 100 µM
TGI [14]: 40.4 µM
TGI [15]: 36.7 µM
TGI [16]: 47.9 µM
TGI [17]: > 100 µM
TGI [18]: > 100 µM
TGI [19]: > 100 µM
TGI [21]: > 100 µM
TGI [22]: > 100 µM
TGI [23]: > 100 µM
TGI [24]: > 100 µM
TGI [25]: 68 µM
TGI [26]: > 100 µM
TGI [27]: > 100 µM
TGI [28]: > 100 µM
TGI [29]: > 100 µM
TGI [30]: > 100 µM
TGI [31]: 23.6 µM
TGI [33]: > 100 µM
TGI [34]: > 100 µM
TGI [36]: > 100 µM
TGI [37]: > 100 µM
TGI [38]: > 100 µM
TGI [39]: 36.9 µM
TGI [40]: 91.6 µM
TGI [41]: > 100 µM
TGI [42]: > 100 µM
TGI [43]: > 100 µM
TGI [44]: > 100 µM
TGI [45]: > 100 µM
TGI [46]: > 100 µM
TGI [47]: > 100 µM
TGI [48]: 47.7 µM
TGI [49]: 34.3 µM
TGI [50]: > 100 µM
TGI [51]: > 100 µM
TGI [52]: > 100 µM
TGI [53]: > 100 µM
TGI [54]: > 100 µM
TGI [55]: > 100 µM
TGI [56]: > 100 µM
TGI [57]: > 100 µM

CCC1([N+](=O)[O-])CC2C=CC1C2 (stereo unspecified)
TGI [1]: > 100 µM
TGI [2]: > 100 µM
TGI [3]: > 100 µM
TGI [4]: > 100 µM
TGI [5]: > 100 µM
TGI [6]: > 100 µM
TGI [59]: > 100 µM
TGI [7]: > 100 µM
TGI [8]: > 100 µM
TGI [9]: > 100 µM
TGI [11]: > 100 µM
TGI [12]: > 100 µM
TGI [13]: > 100 µM
TGI [14]: > 100 µM
TGI [15]: > 100 µM
TGI [16]: > 100 µM
TGI [17]: > 100 µM
TGI [18]: > 100 µM
TGI [19]: > 100 µM
TGI [20]: > 100 µM
TGI [21]: > 100 µM
TGI [22]: > 100 µM
TGI [23]: > 100 µM
TGI [24]: > 100 µM
TGI [25]: > 100 µM
TGI [26]: > 100 µM
TGI [27]: > 100 µM
TGI [28]: > 100 µM
TGI [29]: > 100 µM
TGI [30]: > 100 µM
TGI [31]: > 100 µM
TGI [32]: > 100 µM
TGI [33]: > 100 µM
TGI [34]: > 100 µM
TGI [35]: > 100 µM
TGI [36]: > 100 µM
TGI [37]: > 100 µM
TGI [38]: > 100 µM
TGI [58]: > 100 µM
TGI [39]: > 100 µM
TGI [40]: > 100 µM
TGI [41]: > 100 µM
TGI [42]: > 100 µM
TGI [43]: > 100 µM
TGI [44]: > 100 µM
TGI [45]: > 100 µM
TGI [46]: > 100 µM
TGI [47]: > 100 µM
TGI [48]: > 100 µM
TGI [49]: > 100 µM
TGI [50]: > 100 µM
TGI [51]: > 100 µM
TGI [52]: > 100 µM
TGI [53]: > 100 µM
TGI [54]: > 100 µM
TGI [55]: > 100 µM
TGI [56]: > 100 µM
TGI [57]: > 100 µM

Cc1ccc(S(=O)(=O)NCCN(CCNS(=O)(=O)c2ccc(C)cc2)S(=O)(=O)c2ccc(C)cc2)cc1
TGI [1]: > 100 µM
TGI [2]: > 100 µM
TGI [3]: > 100 µM
TGI [4]: > 100 µM
TGI [5]: > 100 µM
TGI [6]: > 100 µM
TGI [59]: > 100 µM
TGI [7]: > 100 µM
TGI [8]: > 100 µM
TGI [9]: > 100 µM
TGI [10]: > 100 µM
TGI [11]: > 100 µM
TGI [12]: > 100 µM
TGI [14]: > 100 µM
TGI [16]: > 100 µM
TGI [17]: > 100 µM
TGI [18]: > 100 µM
TGI [19]: > 100 µM
TGI [20]: > 100 µM
TGI [21]: > 100 µM
TGI [22]: > 100 µM
TGI [23]: 60 µM
TGI [24]: > 100 µM
TGI [25]: > 100 µM
TGI [26]: > 100 µM
TGI [27]: > 100 µM
TGI [28]: > 100 µM
TGI [30]: > 100 µM
TGI [31]: > 100 µM
TGI [32]: > 100 µM
TGI [33]: > 100 µM
TGI [34]: > 100 µM
TGI [35]: 56 µM
TGI [36]: > 100 µM
TGI [37]: > 100 µM
TGI [38]: > 100 µM
TGI [58]: > 100 µM
TGI [39]: > 100 µM
TGI [40]: > 100 µM
TGI [41]: > 100 µM
TGI [42]: > 100 µM
TGI [43]: > 100 µM
TGI [44]: > 100 µM
TGI [45]: > 100 µM
TGI [46]: > 100 µM
TGI [47]: > 100 µM
TGI [48]: > 100 µM
TGI [50]: > 100 µM
TGI [51]: > 100 µM
TGI [52]: > 100 µM
TGI [53]: > 100 µM
TGI [54]: > 100 µM
TGI [55]: > 100 µM
TGI [56]: > 100 µM
TGI [57]: > 100 µM

Source: PubChem BioAssay (NCI)
